Measurements as given in patent US7531500B2, “Preventing airway mucus production by administration of EGF-R antagonists” (The Regents of the University of California, priority 1998, dated 2009).

Assays:
[1] = system: NCI-H292 cells; assay: Immunoassay of MUC5AC protein in NCI-H292 cells (Example 2); type: cell-based, human; settings: for MUC5AC synthesis by supernatant of activated neutrophils, cigarette smoke and H2O2 / MUC5AC protein synthesis by TGFα: DMSO 1%, SOD 300 U/ml; for MUC5AC synthesis by supernatant of activated neutrophils, cigarette smoke and H2O2: DMTU 50 mM; for MUC5AC protein synthesis induced by the supernatant of activated neutrophils: BIBX1522 10 μg/ml, AG1478 10 μM, AG1295 100 μM, A1 100 μM, 30 min pretreatment, antibodies preincubated with supernatant
Procedure: Cell Culture. NCI-H292 cells, a human pulmonary mucoepidermoid carcinoma cell line, were grown in RPMI 1640 medium containing 10% fetal bovine serum, penicillin (100 U/ml), streptomycin (100 μg/ml) and Hepes (25 mM) at 37° C. in a humidified 5% CO2, water-jacketed incubator. Either 6-well culture plates or 8-chamber slides were used to culture the cells. […] The cells were then washed and incubated with fresh medium alone. Experiments were terminated at preselected times (for mRNA, 6 h and 12 h; for protein, 24 h). As controls, cells were incubated with medium alone for same time periods. […] In inhibition studies with blocking antibodies to EGF-R ligands, the supernatants were pretreated with anti-TGFα antibody (Calbiochem) or anti-EGF antibody for 30 min and then added to NCI-H292 cells. The role of oxygen free radicals was examined using scavengers of oxygen free radical DMSO (1%, Sigma), 1,3-dimethyl-2-thiourea (DMTU, 50 mM, Sigma), or superoxide dismutase (SOD, 300 U/ml, Sigma).
Preparation of Cigarette Smoke Solution. Research cigarettes (code2R1, produced for the University of Kentucky Tobacco and Health Research Foundation) were used in the study. Cigarette smoke solution was prepared as previously described (Dusser et al. (1989) J. Clin. Invest. 84:900-906). In brief, cigarette smoke was withdrawn into a polypropylene syringe (35 ml) at a rate of one puff/min (10 times) and bubbled slowly into 20 ml of RPM11640 containing 50 mM Hepes buffer. The smoke solution was then titrated to pH 7,4 and used immediately after preparation.
Immunoassay of MUC5AC Protein. MUC5AC protein was measured as described above. In brief, cell lysates were prepared with PBS at multiple dilutions, and 50 μl of each sample was incubated with bicarbonate-carbonate buffer (50 μl) at 40° C. in a 96-well plate (Maxisorp Nunc, Fisher Scientific, Santa Clara, Calif.), until dry. Plates were washed three times with PBS and blocked with 2% BSA (fraction V, Sigma) for 1 h at room temperature. Plates were again washed three times with PBS and then incubated with 50 μl of mouse monoclonal MUC5AC antibody (1:100) that was diluted with PBS containing 0.05% Tween 20. After 1 h, the wells were washed three times with PBS, and 100 μl horseradish peroxidase-goat anti-mouse IgG conjugate (1:10,000, Sigma) was dispensed into each well. After 1 h, plates were washed three times with PBS. Color reaction was developed with TMB peroxidase solution (Kirkegaard & Perry Laboratories, Gaithersburg, Md.) and stopped with 2N H2SO4. Absorbance was read at 450 nm.

[2] = system: NCI-H292 cells; assay: MUC5AC mRNA and protein in NCI-H292 cells incubated with cigarette smoke solution (Example 7); type: cell-based, human; settings: BIBX1522 10 μg/ml, AG1478 10 μM; for MUC5AC protein synthesis induced by cigarette smoke solution: AG1295 100 μM, A1 100 μM, DMSO 1%, SOD 300 U/ml
Procedure: NCI-H292 cells, a human pulmonary mucoepidermoid carcinoma cell line, were grown in RPMI 1640 medium containing 10% fetal bovine serum, penicillin (100 U/ml), streptomycin (100 μg/ml) and Hepes (25 mM) at 37° C. in a humidified 5% CO2 water-jacketed incubator. Either 6-well culture plates or 8-chamber slides were used to culture the cells. When confluent, cells were incubated for 1 hour with cigarette smoke solution. The cells were then washed and incubated with fresh medium alone. Experiments were terminated at preselected times (for mRNA, 6 hours and 12 hours; for protein, 24 hours). As controls, cells were incubated with medium alone for same time periods. […] The effects of a selective inhibitor of platelet-derived growth factor receptor tyrosine kinase (tyrphostin AG1295, 100 μM, Calbiochem), and a negative control for tyrphostins (tyrphostin A1, 100 μM, Calbiochem) were also examined. The role of reactive oxygen species was examined using a scavenger of oxygen free radicals DMSO (1%, Sigma), or superoxide dismutase (SOD, 300 U/ml, Sigma).
In situ hybridization was performed using a human EGFR probe, which contains a 350-bp cDNA fragment of the human EGFR gene (pTRI-EGFR-human probe template, Ambion, Austin, Tex.) and a human MUC5AC probe, which contains a 298-bp cDNA fragment of the human MUC5AC gene, The 350-bp cDNA human EGFR was subcloned into pBluescript II SK-vector at Kpn I and EcoR I sites. This pBluescript was used to generate human EGFR antisense and sense probes. Hybridization was performed as described previously. Lou et al. (1998) Am. J. Respir. Crit. Care Med. 157:1927-1934. In brief, the cells grown on the 8-chamber slides were fixed in 4% paraformaldehyde, rehydrated in 0.5×SSC, and then acetylated in triethanolamine and acetic anhydride. Hybridization was carried out with 2500-4000 cpm/μl of antisense or sense probe in 50% deionized formamide, 0.3 M NaCl, 20 mM Tris, 5 mM EDTA, 1× Denhardt's solution, 20 mM dithiothreitol, 10% dextran sulfate, 0.5 mg/ml yeast tRNA, and 0.5 mg/ml sonicated salmon sperm DNA at 58° overnight. Posthybridization treatment consisted of washes with 2×SSC, 1 mM EDTA, 10 mM β-mercaptoethanol at room temperature, incubation with RNase solution (20 μg/ml) for 30 min at room temperature, and further washes in 0.1×SSC, 1 mM EDTA, 10 mM β-mercaptoethanol at 55° C. for 2 hours and then in 0.5×SSC at room temperature for 20 minutes. Specimens were dehydrated, air-dried, and covered with Kodak NBT nuclear track emulsion (Eastman Kodak, Rochester, N.Y.) for autoradiography. After exposure for 7 to 21 days at 4° C., the slides were developed, fixed, and counterstained with hematoxylin.
MUC5AC protein was measured as described previously. Takeyama et al. (1999) Proc. Natl. Acad. Sci. USA 96:3081-3086. In brief, cell lysates were prepared with PBS at multiple dilutions, and 50 μl of each sample was incubated with bicarbonate-carbonate buffer (50 μl) at 40° C. in a 96-well plate (Maxisorp Nunc, Fisher Scientific, Santa Clara, Calif.), until dry. Plates were washed three times with PBS and blocked with 2% bovine serum albumin, fraction V (Sigma) for 1 hour at room temperature. Plates were again washed three times with PBS and then incubated with 50 μl of MUC5AC mAb (1:1 00) that was diluted with PBS containing 0.05% Tween 20. After 1 hour, the wells were washed three times with PBS, and 100 μl horseradish peroxidase-goat anti-mouse IgG conjugate (1:10,000) was dispensed into each well. After 1 hour, plates were washed three times with PBS. Color reaction was developed with 3,3′,5,5′-tetramethylbenzidine (TMB) peroxidase solution (Kirkegaard & Perry Laboratories, Gaithersburg, Md.) and stopped with 2N H2S04. Absorbance was read at 450 nm.

[3] = molecular target: EGFR (Homo sapiens, UniProt P00533); assay: Immunoprecipitation of EGF-R and immunoblotting for tyrosine phosphorylation in NCI-H292 cells; type: cell-based; design: These cells express EGF-R constitutively; endogenous in cells; host or cells: NCI-H292 (human pulmonary mucoepidermoid carcinoma)
Chain of EGFR (P00533 25-1210): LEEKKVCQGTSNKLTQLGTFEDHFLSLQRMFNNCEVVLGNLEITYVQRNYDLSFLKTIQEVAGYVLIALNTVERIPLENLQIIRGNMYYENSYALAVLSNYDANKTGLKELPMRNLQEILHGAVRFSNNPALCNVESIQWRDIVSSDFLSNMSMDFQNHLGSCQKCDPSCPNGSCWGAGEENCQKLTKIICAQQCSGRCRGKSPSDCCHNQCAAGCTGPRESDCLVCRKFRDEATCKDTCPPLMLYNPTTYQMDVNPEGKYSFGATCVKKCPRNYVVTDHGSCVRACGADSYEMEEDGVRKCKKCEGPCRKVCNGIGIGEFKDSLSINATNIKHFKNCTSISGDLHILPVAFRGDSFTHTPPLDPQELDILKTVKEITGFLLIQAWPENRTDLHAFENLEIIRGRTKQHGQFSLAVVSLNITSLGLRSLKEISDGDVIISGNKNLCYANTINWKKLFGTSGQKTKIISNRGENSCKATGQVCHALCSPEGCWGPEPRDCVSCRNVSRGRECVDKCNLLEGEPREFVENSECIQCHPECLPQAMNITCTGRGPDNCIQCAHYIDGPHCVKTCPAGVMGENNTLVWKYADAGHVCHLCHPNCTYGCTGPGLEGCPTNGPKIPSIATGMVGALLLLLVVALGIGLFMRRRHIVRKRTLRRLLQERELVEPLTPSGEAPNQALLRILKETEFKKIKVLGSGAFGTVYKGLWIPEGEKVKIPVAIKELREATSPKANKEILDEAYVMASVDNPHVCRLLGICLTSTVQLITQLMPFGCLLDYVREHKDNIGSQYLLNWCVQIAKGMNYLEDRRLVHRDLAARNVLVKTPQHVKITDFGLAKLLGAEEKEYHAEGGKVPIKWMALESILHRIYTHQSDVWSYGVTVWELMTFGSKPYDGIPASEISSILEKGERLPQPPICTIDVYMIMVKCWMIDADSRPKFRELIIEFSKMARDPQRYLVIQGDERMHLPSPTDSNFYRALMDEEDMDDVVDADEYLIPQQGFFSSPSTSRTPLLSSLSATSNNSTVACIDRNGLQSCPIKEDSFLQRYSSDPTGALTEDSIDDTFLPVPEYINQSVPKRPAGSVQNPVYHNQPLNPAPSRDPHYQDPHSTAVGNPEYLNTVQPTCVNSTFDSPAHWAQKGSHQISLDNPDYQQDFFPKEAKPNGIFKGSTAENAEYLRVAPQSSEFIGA
Procedure: Immunoprecipitation for EGF-R Protein and Immunoblotting for Tyrosine Phosphorylation. Cells were serum-starved for 24 h and then stimulated with TGFα, H2O2, or the supernatant of activated neutrophils for 15 min. After stimulation, cells were lysed and incubated for 30 min in an orbital shaker at 4° C. To remove insoluble material, cell lysates were centrifuged at 14,000 rpm for 5 min at 4° C. Aliquots of supernatants containing equal amounts of protein were immunoprecipitated with anti-EGF receptor antibody (polyclonal, Ab4, Calbiochem) and 20 μl of protein A-agarose (Santa Cruz) for 2 h at 4° C. Precipitates were washed three times with 0.5 ml of lysis buffer, suspended in SDS sample buffer, and boiled for 5 min. Proteins were separated by SDS-PAGE in 8.0% acrylamide gel. The resulting gel was equilibrated in the transfer buffer: 25 mM Tris-HCl, 192 mM glycine, 20% (vol/vol) methanol, pH 8.3. The proteins were then transferred electrophoretically to nitrocellulose membranes (0.22 μm), blocked with 5% fat-free skimmed milk in PBS containing 0.05% Tween 20 overnight and then incubated with monoclonal anti-phosphotyrosine antibody (1:100,Santa Cruz) for 1 h. Bound antibody was visualized according to a standard protocol for the avidin-biotin-alkaline phosphatase complex method (ABC kit, Vector Laboratories).

Compound | MUC5AC synthesis induced by cigarette smoke [1] | MUC5AC synthesis by supernatant of activated neutrophils, cigarette smoke and H2O2 [1] | MUC5AC protein synthesis by TGFα [1] | MUC5AC protein synthesis induced by cigarette smoke solution [2] | TGFα-induced EGF-R tyrosine phosphorylation [3] | supernatant-, cigarette smoke-, and H2O2-induced EGF-R tyrosine phosphorylation [3] | MUC5AC protein synthesis induced by the supernatant of activated neutrophils [1] | increase in MUC5AC protein synthesis induced by all stimuli (cigarette smoke, H2O2, TGFα) ([1]; pretreatment 10 μM) | MUC5AC mRNA expression induced by cigarette smoke solution [2]
superoxide dismutase [SOD] | partially inhibited | significantly inhibited | unaffected | inhibited significantly |  |  |  |  | 
C[S+](C)[O-] [DMSO] | partially inhibited | significantly inhibited | unaffected | inhibited significantly | had no effect | inhibited |  |  | 
COc1cc2ncnc(Nc3cccc(Cl)c3)c2cc1OC [AG1478] |  |  |  | prevented |  |  | prevented | prevented | prevented
Cc1cc2ncc(-c3ccccc3)nc2cc1C [AG1295] |  |  |  | without effect |  |  | without effect |  | 
